Data from PMC9750858, “Rapid biosensor development using plant hormone receptors as reprogrammable scaffolds” (Nature Biotechnology, 2022).
Where “and” joins values, the source holds several entries; their conditions need not be identical. Identical values can stand only once.

How the values were obtained:
PYR1^WIN-M = molecular target: T1, PYR1^WIN-M (Arabidopsis thaliana, UniProt O49686, A160I/D26G/E4G/F159A/H60P/K59Q/N90S/Y23H); test: ELISA-like plate assay, immobilized PYR1^WIN-M, biotinylated ΔN-HAB1^T+; format: binding; conditions: for ELISA signal generation, receptor cross-reactivity (source data): replicates; for LOD (lower limit of detection): fivefold dilution
T1 construct: made in house
T1 sequence (O49686 with tags, fused parts or gaps E4G/Y23H/D26G/K59Q/H60P/N90S/F159A/A160I): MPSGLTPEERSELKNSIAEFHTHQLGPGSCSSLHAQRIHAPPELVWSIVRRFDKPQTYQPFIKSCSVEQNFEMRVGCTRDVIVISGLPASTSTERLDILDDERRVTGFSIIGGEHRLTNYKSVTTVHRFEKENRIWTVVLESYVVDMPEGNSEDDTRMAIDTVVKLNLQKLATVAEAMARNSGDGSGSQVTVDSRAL

PYR1^DIAZI = PYR1^DIAZI (Arabidopsis thaliana, UniProt O49686, A160V/E8G/F108Y/F159G/L87M/M158V/V81Y); test: Split NanoLuc luciferase complementation in yeast, NLuc^N-PYR1^DIAZI/NLuc^C-HAB1; format: cell-based; design: >PYR1-DIAZI; expressed in transfected cells; host or cells: Saccharomyces cerevisiae BY4742; conditions: ligand diazinon, replicates;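 further: relative luminescence averaged over the signal plateau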
Sequence of PYR1^DIAZI (Q9CAJ0 179-511): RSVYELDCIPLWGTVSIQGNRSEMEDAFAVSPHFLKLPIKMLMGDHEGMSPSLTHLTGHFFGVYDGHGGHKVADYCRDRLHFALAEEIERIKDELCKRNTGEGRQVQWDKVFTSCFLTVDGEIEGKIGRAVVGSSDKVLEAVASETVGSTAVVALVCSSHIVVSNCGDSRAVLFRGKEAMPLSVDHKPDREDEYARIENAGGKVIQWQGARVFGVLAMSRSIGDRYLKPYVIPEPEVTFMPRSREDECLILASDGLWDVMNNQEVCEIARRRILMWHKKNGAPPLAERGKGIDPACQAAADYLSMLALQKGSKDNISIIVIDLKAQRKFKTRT
Sequence of PYR1^DIAZI (O49686 other isoform, or with tags, fused parts or gaps E8G/V81Y/L87M/F108Y/M158V/F159G/A160V): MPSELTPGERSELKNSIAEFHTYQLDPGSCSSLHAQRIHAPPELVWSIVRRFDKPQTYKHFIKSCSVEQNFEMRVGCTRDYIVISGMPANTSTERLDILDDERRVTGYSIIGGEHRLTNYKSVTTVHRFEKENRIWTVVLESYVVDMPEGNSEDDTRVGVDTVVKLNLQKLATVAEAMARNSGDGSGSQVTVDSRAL

PYR1^PIRI = molecular target: T2, PYR1^PIRI (Arabidopsis thaliana, UniProt O49686, A160T/E130G/F159T/K59R/N119S/S122Q/S92M/V174A); test: Split NanoLuc luciferase complementation in yeast, NLuc^N-PYR1^PIRI/NLuc^C-HAB1; format: cell-based; conditions: ligand pirimiphos-methyl, replicates;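 further: relative luminescence averaged over the signal plateau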
T2 construct: >PYR1-PIRI; expressed in transfected cells; host or cells: Saccharomyces cerevisiae BY4742
T2 sequence (O49686 other isoform, or with tags, fused parts or gaps K59R/S92M/N119S/S122Q/E130G/F159T/A160T/V174A): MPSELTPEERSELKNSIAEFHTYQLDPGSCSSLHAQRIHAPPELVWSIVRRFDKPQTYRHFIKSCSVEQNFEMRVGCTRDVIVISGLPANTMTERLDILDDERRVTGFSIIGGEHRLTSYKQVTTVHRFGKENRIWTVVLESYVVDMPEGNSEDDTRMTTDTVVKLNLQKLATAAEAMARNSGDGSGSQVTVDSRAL
T2 sequence (Q9CAJ0 179-511, further chain): as the sequence (Q9CAJ0 179-511) above

## C=C(C)[C@@H]1CCC(C)=C[C@H]1c1c(O)cc(CCCCC)cc1O [Cannabidiol]
PYR1^WIN-M; cannabinoid at 2 nM
  ELISA signal generation, receptor cross-reactivity (source data): 0.109 and 0.094 and 0.096
PYR1^WIN-M; cannabinoid at 2 μM
  ELISA signal generation, receptor cross-reactivity (source data): 0.095 and 0.093 and 0.084

## CCCCCn1cc(C(=O)N2CCN(C)CC2)c2ccccc21 [Mepirapim]
PYR1^WIN-M; cannabinoid at 2 nM
  ELISA signal generation, receptor cross-reactivity (source data): 0.117 and 0.158 and 0.176
PYR1^WIN-M; cannabinoid at 2 μM
  ELISA signal generation, receptor cross-reactivity (source data): 0.111 and 0.116 and 0.103

## CCCc1ccc(C(=O)c2cn(CCC)c3ccccc23)c2ccccc12 [JWH-180]
PYR1^WIN-M; cannabinoid at 2 nM
  ELISA signal generation, receptor cross-reactivity (source data): 0.104 and 0.071 and 0.083
PYR1^WIN-M; cannabinoid at 2 μM
  ELISA signal generation, receptor cross-reactivity (source data): 0.08 and 0.088 and 0.087

## CCCCCc1cc(O)c2c(c1)OC(C)(C)[C@@H]1CCC(C)=C[C@@H]21 [Δ^9-THC, tetrahydrocannabinol]
PYR1^WIN-M; cannabinoid at 2 nM
  ELISA signal generation, receptor cross-reactivity (source data): 0.105 and 0.137 and 0.097
PYR1^WIN-M; cannabinoid at 2 μM
  ELISA signal generation, receptor cross-reactivity (source data): 0.116 and 0.081 and 0.066

## CCCCCn1cc(-c2nc(CN(CC)CC)cs2)c2ccccc21 [PTI-1]
PYR1^WIN-M; cannabinoid at 2 nM
  ELISA signal generation, receptor cross-reactivity (source data): 0.097 and 0.112 and 0.193
PYR1^WIN-M; cannabinoid at 2 μM
  ELISA signal generation, receptor cross-reactivity (source data): 0.105 and 0.089 and 0.091

## CCCCCn1cc(C(=O)Cc2ccccc2)c2ccccc21 [JWH-167]
PYR1^WIN-M; cannabinoid at 2 nM
  ELISA signal generation, receptor cross-reactivity (source data): 0.146 and 0.078 and 0.09
PYR1^WIN-M; cannabinoid at 2 μM
  ELISA signal generation, receptor cross-reactivity (source data): 0.075 and 0.092 and 0.077

## O=C(Nc1cccc2cccnc12)c1cn(CCCCCF)c2ccccc12 [AM2201, AM2201 8-quinolinyl carboxamide]
PYR1^WIN-M; cannabinoid at 2 nM
  ELISA signal generation, receptor cross-reactivity (source data): 0.169 and 0.127 and 0.144
PYR1^WIN-M; cannabinoid at 2 μM
  ELISA signal generation, receptor cross-reactivity (source data): 0.112 and 0.114 and 0.096

## Cc1ccc(C(=O)c2cn(CCN3CCOCC3)c3ccccc23)c2ccccc12 [JWH-193]
PYR1^WIN-M; cannabinoid at 2 nM
  ELISA signal generation, receptor cross-reactivity (source data): 0.065 and 0.104 and 0.068
PYR1^WIN-M; cannabinoid at 2 μM
  ELISA signal generation, receptor cross-reactivity (source data): 0.07 and 0.084 and 0.11

## CCCCCn1cc(C(=O)c2cccc3ccccc23)cc1-c1ccccc1C [JWH-370]
PYR1^WIN-M; cannabinoid at 2 nM
  ELISA signal generation, receptor cross-reactivity (source data): 0.069 and 0.076 and 0.063
PYR1^WIN-M; cannabinoid at 2 μM
  ELISA signal generation, receptor cross-reactivity (source data): 0.06 and 0.059 and 0.063

## CCCCCn1cc(C(=O)c2cccc3ccccc23)cc1-c1ccccc1 [JWH-145]
PYR1^WIN-M; cannabinoid at 2 nM
  ELISA signal generation, receptor cross-reactivity (source data): 0.469 and 0.077 and 0.091
PYR1^WIN-M; cannabinoid at 2 μM
  ELISA signal generation, receptor cross-reactivity (source data): 0.105 and 0.116 and 0.1

B1: PYR1^WIN-M: monomeric PYR1-WIN for ELISA: Y23H, D26G, K59Q, H60P, N90S, F159A, A160I (protein, UniProt O49686 1-191, looked up, variant Y23H D26G K59Q H60P N90S F159A A160I)
Abscisic acid receptor PYR1: MPSELTPEERSELKNSIAEFHTHQLGPGSCSSLHAQRIHAPPELVWSIVRRFDKPQTYQPFIKSCSVEQNFEMRVGCTRDVIVISGLPASTSTERLDILDDERRVTGFSIIGGEHRLTNYKSVTTVHRFEKENRIWTVVLESYVVDMPEGNSEDDTRMAIDTVVKLNLQKLATVAEAMARNSGDGSGSQVT
PYR1^WIN-M; spiked blood serum
  LOD (lower limit of detection): 1,105 pM
PYR1^WIN-M; spiked saliva
  LOD (lower limit of detection): 305 pM
PYR1^WIN-M; spiked urine
  LOD (lower limit of detection): 515 pM

B2: PYR1-diazi: diazinon-responsive heptuple PYR1 mutant (E8G, V81Y, L87M, F108Y, M158V, F159G, A160V) (protein)
chain: MPSELTPGERSELKNSIAEFHTYQLDPGSCSSLHAQRIHAPPELVWSIVRRFDKPQTYKHFIKSCSVEQNFEMRVGCTRDYIVISGMPANTSTERLDILDDERRVTGYSIIGGEHRLTNYKSVTTVHRFEKENRIWTVVLESYVVDMPEGNSEDDTRVGVDTVVKLNLQKLATVAEAMARNSGDGSGSQVT
modifications: left off: Gal4 DNA-binding domain (from the vector pBD), end not stated, kept
PYR1^DIAZI; [Ligand] (uM) 0.01
  split luciferase luminescence (Fig. 4c source data): 2.821 and 4.017 and 3.928
PYR1^DIAZI; [Ligand] (uM) 0.1
  split luciferase luminescence (Fig. 4c source data): 3.172 and 4.215 and 4.029
PYR1^DIAZI; [Ligand] (uM) 1
  split luciferase luminescence (Fig. 4c source data): 4.479 and 4.68 and 4.503
PYR1^DIAZI; [Ligand] (uM) 10
  split luciferase luminescence (Fig. 4c source data): 10.058 and 10.652 and 11.029
PYR1^DIAZI; [Ligand] (uM) 100
  split luciferase luminescence (Fig. 4c source data): 21.801 and 16.912 and 16.034
PYR1^DIAZI; [Ligand] (uM) 1000
  split luciferase luminescence (Fig. 4c source data): 25.73 and 20.742 and 19.283
PYR1^DIAZI; [Ligand] (uM) 10000
  split luciferase luminescence (Fig. 4c source data): 25.492 and 21.692 and 23.422

B3: PYR1-pirimi: pirimiphos-responsive octuple PYR1 mutant (K59R, S92M, N119S, S122Q, E130G, F159T, A160T, V174A) (protein, UniProt O49686 1-191, looked up, variant K59R S92M N119S S122Q E130G F159T A160T V174A)
Abscisic acid receptor PYR1: MPSELTPEERSELKNSIAEFHTYQLDPGSCSSLHAQRIHAPPELVWSIVRRFDKPQTYRHFIKSCSVEQNFEMRVGCTRDVIVISGLPANTMTERLDILDDERRVTGFSIIGGEHRLTSYKQVTTVHRFGKENRIWTVVLESYVVDMPEGNSEDDTRMTTDTVVKLNLQKLATAAEAMARNSGDGSGSQVT
PYR1^PIRI; [Ligand] 0.01
  split luciferase luminescence (Fig. 4c source data): 2.798 and 2.193 and 2.504
PYR1^PIRI; [Ligand] 0.1
  split luciferase luminescence (Fig. 4c source data): 2.824 and 1.934 and 2.89
PYR1^PIRI; [Ligand] 1
  split luciferase luminescence (Fig. 4c source data): 4.065 and 3.256 and 4.278
PYR1^PIRI; [Ligand] 10
  split luciferase luminescence (Fig. 4c source data): 10.289 and 6.672 and 8.183
PYR1^PIRI; [Ligand] 100
  split luciferase luminescence (Fig. 4c source data): 22.748 and 20.257 and 17.606
PYR1^PIRI; [Ligand] 1000
  split luciferase luminescence (Fig. 4c source data): 23.566 and 22.462 and 20.41
PYR1^PIRI; [Ligand] 10000
  split luciferase luminescence (Fig. 4c source data): 23.974 and 20.5 and 20.202
